The experiment addresses T1, hQ23 (HEK-293 cell line stably transfected with one of the members of the KCNQ family) (Homo sapiens, UniProt O43525+O43526).
T1 construct: expressed in transfected cells; host or cells: HEK-293, stably transfected
The experiment in a line: Thallium flux assay for KCNQ channel blockers (FLIPR, BTC dye). It is filed as cell-based. On the procedure: Thallium Flux Assay for KCNQ channel blockers. Approximately 20,000 cells/well of an HEK-293 cell line stably transfected with one of the members of the KCNQ family were plated into clear-bottom, black-walled, poly-D-lysine coated, 384 well assay plates in 20 μl/well of low chloride plating medium. Low chloride plating medium was composed of the following: sodium gluconate, 109 mM; potassium gluconate, 5.4 mM; hemi-calcium gluconate, 3.6 mM; magnesium sulfate, 0.8 mM; sodium bicarbonate, 26.2 mM; sodium phosphate monobasic, 1.2 mM; glutamine, 2 mM; glucose, 5 mM; HEPES (pH 7.3) 10 mM, 10× concentration of vitamins (Gibco/LifeTechnologies catalog #11120-052) and 1× concentration of amino acids (Gibco/LifeTechnologies catalog #11130-051).
Following overnight incubation in a 5% CO2 incubator at 37° C., the cells in the plates were loaded with 20 μl/well of a dye loading solution containing the acetomethoxy ester of the thallium-sensitive fluorescent dye BTC, BTC-AM (2 μM) and pluronic acid (0.02% w/v) in chloride free assay buffer. Chloride free assay buffer was composed of the following: sodium gluconate, 140 mM; potassium gluconate, 2.5 mM; hemi-calcium gluconate, 6 mM; hemi-magnesium gluconate, 2 mM; glucose, 5 mM; HEPES (pH 7.3), 10 mM.
Following incubation in the dye loading solution for from 45–90 min at room temperature, the dye loading solution was removed by aspiration and replaced with 40 μl/well of chloride free assay buffer.
Prior to addition to cell plates, test compound and standard compounds were dissolved in DMSO to 3 mM concentration. Compounds were then diluted from the 3 mM stock to 100-fold over the final assay concentration in DMSO. Finally, compounds in DMSO were diluted from 100-fold over the final assay concentration to 5-fold over the final assay concentration in chloride free assay buffer.
Ten μl/well of compounds at 5-fold over the final assay concentration were then added to the cell plates. This represents a 1:5 dilution, yielding the final test concentration. The wells used for test compounds were A1–P20. Wells A21–P22 contained a standard ‘blocker’ and a fully efficacious concentration (positive control). Wells A23–P24 contained chloride free assay buffer containing 1% DMSO (negative control).
Following addition of test compounds, the plates were loaded onto the Molecular Devices FLIPR. The 488 nm line of the argon laser was used to excite the BTC and the emission filter was a 540(+/−30) nm. Images were collected at 1 Hz. Ten seconds of baseline were collected and then the FLIPR was used to add 13 μl/well of a stimulus buffer composed of Tl2SO4, 25 mM; sodium gluconate, 30 mM; potassium sulfate, 50 mM; hemi-calcium gluconate, 6 mM; hemi-magnesium gluconate, 2 mM; glucose, 5 mM; HEPES (pH 7.3), 10 mM in chloride free assay buffer. Images were collected for an additional 60 seconds.
For data analysis, the amplitude of the average of the negative controls was subtracted from all wells. The amplitudes of the test compounds were then compared to the value of four standard deviations of the negative control wells. The lowest concentration of a test compound sufficient to generate a signal amplitude greater than or equal to four standard deviations from the amplitude of the negative controls was defined as the minimal active concentration.
For generating IC50 values, compounds were serially diluted in 1:3 volume increments to produce a 10 point concentration series. IC50 values were calculated by fitting the resulting amplitudes to a single-site logistic equation. IC50 was defined as the concentration of test compound required to yield 50% of the response of the positive control.

Where [1] appears, read: Table 2, thallium flux, HEK-293.
The mark [2] stands for this setting: hQ23 cells, thallium flux assay.

Here are results for 23 compounds from patent publication US7091202B2, “4-arylspirocycloalkyl-2-aminopyrimidine carboxamide KCNQ potassium channel modulators” (Bristol-Myers Squibb Company, priority 2004, dated 2006).

T1 sequence (O43526 whole entry): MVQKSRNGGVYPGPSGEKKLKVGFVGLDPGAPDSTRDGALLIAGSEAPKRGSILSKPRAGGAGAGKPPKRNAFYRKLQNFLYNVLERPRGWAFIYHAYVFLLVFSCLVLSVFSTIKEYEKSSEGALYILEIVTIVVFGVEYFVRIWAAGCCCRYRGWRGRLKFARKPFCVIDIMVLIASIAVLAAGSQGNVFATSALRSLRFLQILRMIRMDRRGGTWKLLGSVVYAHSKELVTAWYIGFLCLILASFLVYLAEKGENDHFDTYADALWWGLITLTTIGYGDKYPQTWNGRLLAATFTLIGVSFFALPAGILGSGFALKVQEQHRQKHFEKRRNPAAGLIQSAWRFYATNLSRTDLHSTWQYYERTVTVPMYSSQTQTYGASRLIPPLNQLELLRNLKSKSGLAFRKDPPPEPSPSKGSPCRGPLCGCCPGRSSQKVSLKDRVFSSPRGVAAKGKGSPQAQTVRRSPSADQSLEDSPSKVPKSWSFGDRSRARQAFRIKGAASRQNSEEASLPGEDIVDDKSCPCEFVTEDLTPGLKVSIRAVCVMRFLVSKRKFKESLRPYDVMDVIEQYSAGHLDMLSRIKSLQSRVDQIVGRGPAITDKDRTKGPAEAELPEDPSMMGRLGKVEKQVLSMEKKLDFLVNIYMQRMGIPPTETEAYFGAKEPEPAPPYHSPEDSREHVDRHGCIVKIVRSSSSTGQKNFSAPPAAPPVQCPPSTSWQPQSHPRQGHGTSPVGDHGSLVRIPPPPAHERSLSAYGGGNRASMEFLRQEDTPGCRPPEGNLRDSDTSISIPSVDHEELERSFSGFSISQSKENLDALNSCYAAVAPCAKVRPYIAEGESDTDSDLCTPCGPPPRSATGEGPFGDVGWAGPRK
T1 sequence (O43525 whole entry): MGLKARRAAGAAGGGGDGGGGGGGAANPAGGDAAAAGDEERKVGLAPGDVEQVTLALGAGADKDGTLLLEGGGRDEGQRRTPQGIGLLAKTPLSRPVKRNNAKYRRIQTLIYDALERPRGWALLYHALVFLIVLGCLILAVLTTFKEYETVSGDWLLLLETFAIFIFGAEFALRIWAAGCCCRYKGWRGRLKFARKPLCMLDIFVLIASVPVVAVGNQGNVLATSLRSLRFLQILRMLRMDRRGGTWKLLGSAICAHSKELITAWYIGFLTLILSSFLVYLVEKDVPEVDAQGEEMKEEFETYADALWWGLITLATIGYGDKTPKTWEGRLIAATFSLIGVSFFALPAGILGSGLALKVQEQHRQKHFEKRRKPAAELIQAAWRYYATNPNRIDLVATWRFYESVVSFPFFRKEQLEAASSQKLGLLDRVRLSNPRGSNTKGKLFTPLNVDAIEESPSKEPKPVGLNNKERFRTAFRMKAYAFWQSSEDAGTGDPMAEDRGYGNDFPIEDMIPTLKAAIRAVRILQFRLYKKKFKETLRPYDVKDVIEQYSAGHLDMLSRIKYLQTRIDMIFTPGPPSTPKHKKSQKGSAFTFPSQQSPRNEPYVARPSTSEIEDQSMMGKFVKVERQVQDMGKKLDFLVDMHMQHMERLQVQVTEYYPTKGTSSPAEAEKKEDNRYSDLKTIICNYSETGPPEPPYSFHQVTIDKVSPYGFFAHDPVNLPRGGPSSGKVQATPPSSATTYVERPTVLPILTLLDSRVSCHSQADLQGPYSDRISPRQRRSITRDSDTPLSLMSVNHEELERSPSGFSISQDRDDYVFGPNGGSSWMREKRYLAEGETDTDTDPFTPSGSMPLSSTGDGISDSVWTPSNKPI

Regarding `CC1CCCN(c2ncc(C(=O)NC(C)c3ccc(F)cc3)c(C3(c4ccccc4)CC3)n2)C1` (centres unmarked) [Example 50, 5-pyrimidinecarboxamide, N-[1-(4-fluorophenyl)ethyl]-2-(3-methyl-1-piperidinyl)-4-(1-phenylcyclopropyl)-], under setting [1], the response was half-maximal at 0.673 µM (EC50). As for `CN(C)CCNc1ncc(C(=O)N(C)CCc2ccccc2)c(C2(c3ccccc3)CC2)n1` [Example 28, 5-pyrimidinecarboxamide, 2-[[2-(dimethylamino)ethyl]amino]-N-methyl-4-(1-phenylcyclopropyl)-N-(2-phenylethyl)-], under setting [1], the EC50 worked out at 0.301 µM.

As for `CC1CCN(c2ncc(C(=O)NCc3cc(F)cc(C(F)(F)F)c3)c(C3(c4ccccc4)CCCC3)n2)CC1` [Example 127, 5-pyrimidinecarboxamide, N-[[3-fluoro-5-(trifluoromethyl)phenyl]methyl]-2-(4-methyl-1-piperidinyl)-4-(1-phenylcylopentyl)-], a half-maximal response (hQ23 cells, thallium flux) (EC50) required 0.01 µM. Same read-out and setting: to `O=C(NCc1ccc(Cl)cc1Cl)c1cnc(N2CCCC2)nc1C1(c2ccccc2)CCCC1` [Example 111, 5-pyrimidinecarboxamide, N-[(2,4-dichlorophenyl)methyl]-4-(1-phenylcyclopentyl)-2-(1-pyrrolidinyl)-] belongs 0.192 µM; to `CC1CCN(c2ncc(C(=O)N(C)Cc3ccccc3)c(C3(c4ccccc4)CCCC3)n2)CC1` [Example 70, 5-pyrimidinecarboxamide, N-methyl-2-(4-methyl-1-piperidinyl)-4-(1-phenylcyclopentyl)-N-(phenylmethyl)-], 0.27 µM.

For `CCC(C)Nc1ncc(C(=O)N(CC)C2CCCCC2)c(C2(c3ccc(F)cc3)CCCC2)n1` (centres unmarked) [Example 216, 5-pyrimidinecarboxamide, N-cyclohexyl-N-ethyl-4-[1-(4-fluorophenyl)cyclopentyl]-2-[(1-methylpropyl)amino]-], under “hQ23 cells, thallium flux”, the EC50 amounted to 0.821 µM. Compared with the last compound, the EC50 is about 3-fold higher.

Under setting [1], `CC1CCCN(c2ncc(C(=O)NCc3ccc(Cl)cc3Cl)c(C3(c4ccccc4)CC3)n2)C1` (centres unmarked) [Example 40, 5-pyrimidinecarboxamide, N-[(2,4-dichlorophenyl)methyl]-2-(3-methyl-1-piperidinyl)-4-(1-phenylcyclopropyl)-] gave an EC50 of 0.326 µM.

Under setting [2], `CN1CCN(c2ncc(C(=O)NCc3cc(F)cc(C(F)(F)F)c3)c(C3(c4ccc(F)cc4)CCCC3)n2)CC1` [Example 276, 5-pyrimidinecarboxamide, 4-[1-(4-fluorophenyl)cyclopentyl]-N-[[3-fluoro-5-(trifluoromethyl)phenyl]methyl]-2-(4-methyl-1-piperazinyl)-] displayed a 50% effective concentration (EC50) of 0.327 µM. As to `O=C(NCc1ccc(Cl)cc1Cl)c1cnc(NC2CC2)nc1C1(c2ccccc2)CCCC1` [Example 109, 5-pyrimidinecarboxamide, 2-(cyclopropylamino)-N-[(2,4-dichlorophenyl)methyl]-4-(1-phenylcyclopentyl)-], the EC50 (hQ23 cells, thallium flux) came out at 0.504 µM. Regarding `O=C(NCc1ccc(Cl)cc1Cl)c1cnc(N2CCCC2)nc1C1(c2ccc(F)cc2)CCCC1` [Example 261, 5-pyrimidinecarboxamide, N-[(2,4-dichlorophenyl)methyl]-4-[1-(4-fluorophenyl)cyclopentyl]-2-(1-pyrrolidinyl)-], the EC50 under setting [2] stood at 0.028 µM. Regarding `CCC(C)Nc1ncc(C(=O)NCc2ccc3c(c2)OCO3)c(C2(c3ccc(F)cc3)CCCC2)n1` (centres unmarked) [Example 238, 5-pyrimidinecarboxamide, N-(1,3-benzodioxol-5-ylmethyl)-4-[1-(4-fluorophenyl)cyclopentyl]-2-[(1-methylpropyl)amino]-], the EC50 under setting [2] was determined as 0.344 µM. In the case of `CC1CCCN(c2ncc(C(=O)N[C@H](C)c3cccc4ccccc34)c(C3(c4ccccc4)CC3)n2)C1` (stereo partly drawn) [Example 34, 5-pyrimidinecarboxamide, 2-(3-methyl-1-piperidinyl)-N-[(1R)-1-(1-naphthalenyl)ethyl]-4-(1-phenylcyclopropyl)-], the EC50 under setting [1] was 0.107 µM. On the same count and under the same terms, the same measure for `O=C(NCc1ccc2c(c1)OCO2)c1cnc(N2CCCC2)nc1C1(c2ccccc2)CC1` [Example 32, 5-pyrimidinecarboxamide, N-(1,3-benzodioxol-5-ylmethyl)-4-(1-phenylcyclopropyl)-2-(1-pyrrolidinyl)-]: 0.413 µM. The compound `CC(NC(=O)c1cnc(NC2CCCC2)nc1C1(c2ccccc2)CCCC1)c1cccc2ccccc12` (centres unmarked) [Example 100, 5-pyrimidinecarboxamide, 2-(cyclopentylamino)-N-[1-(1-naphthalenyl)ethyl]-4-(1-phenylcyclopentyl)-] yielded an EC50 (hQ23 cells, thallium flux) of 0.16 µM.

Consider `O=C(NCc1cccc2ccccc12)c1cnc(N2CCCC2)nc1C1(c2ccc(Cl)cc2)CCCC1` [Example 167, 5-pyrimidinecarboxamide, 4-[1-(4-chlorophenyl)cyclopentyl]-N-(1-naphthalenylmethyl)-2-(1-pyrrolidinyl)-], for which the response (hQ23 cells, thallium flux) was half-maximal at 0.142 µM (EC50). For the compound `CCC(C)Nc1ncc(C(=O)N(CC)C2CCCCC2)c(C2(c3ccc(Cl)cc3)CCCC2)n1` (centres unmarked) [Example 143, 5-pyrimidinecarboxamide, 4-[1-(4-chlorophenyl)cyclopentyl]-N-cyclohexyl-N-ethyl-2-[(1-methylpropyl)amino]-], the EC50 (hQ23 cells, thallium flux) was determined as 0.88 µM. This EC50 lies about 6.2-fold higher than the previous one. For the compound `CCC(C)Nc1ncc(C(=O)NCc2ccc3c(c2)OCO3)c(C2(c3ccc(Cl)cc3)CCC2)n1` (centres unmarked) [Example 59, 5-pyrimidinecarboxamide, N-(1,3-benzodioxol-5-ylmethyl)-4-[1-(4-chlorophenyl)cyclobutyl]-2-[(1-methylpropyl)amino]-], under “Table 3, thallium flux, HEK-293”, the EC50 is 0.405 µM. As for `CC1CCCN(c2ncc(C(=O)NCc3ccc(F)cc3F)c(C3(c4ccc(Cl)cc4)CCCC3)n2)C1` (centres unmarked) [Example 187, 5-pyrimidinecarboxamide, 4-[1-(4-chlorophenyl)cyclopentyl]-N-[(2,4-difluorophenyl)methyl]-2-(3-methyl-1-piperidinyl)-], for the setting “hQ23 cells, thallium flux”, the EC50 stood at 0.095 µM. That is a double-digit nanomolar value. For the setting “hQ23 cells, thallium flux”, `CN(C(=O)c1cnc(NC2CCCC2)nc1C1(c2ccc(F)cc2)CCCC1)C1CCCCC1` [Example 209, 5-pyrimidinecarboxamide, N-cyclohexyl-2-(cyclopentylamino)-4-[1-(4-fluorophenyl)cyclopentyl]-N-methyl-] gave an EC50 of 0.702 µM. On the same count and under the same terms, to `CN(CCc1ccccc1)C(=O)c1cnc(NC2CC2)nc1C1(c2ccc(Cl)cc2)CCCC1` [Example 145, 5-pyrimidinecarboxamide, 4-[1-(4-chlorophenyl)cyclopentyl]-2-(cyclopropylamino)-N-methyl-N-(2-phenylethyl)-] belongs 0.895 µM. In turn, `CC1CCCN(c2ncc(C(=O)N(C)CCc3ccccc3)c(C3(c4ccccc4)CCCC3)n2)C1` (centres unmarked) [Example 80, 5-pyrimidinecarboxamide, N-methyl-2-(3-methyl-1-piperidinyl)-4-(1-phenylcyclopentyl)-N-(2-phenylethyl)-] registered an EC50 (hQ23 cells, thallium flux) of 0.88 µM. Still for that read-out and setting: to `CC1CCC(Nc2ncc(C(=O)NCc3ccc(Cl)cc3Cl)c(C3(c4ccc(Cl)cc4)CCCC3)n2)CC1` (centres unmarked) [Example 177, 5-pyrimidinecarboxamide, 4-[1-(4-chlorophenyl)cyclopentyl]-N-[(2,4-dichlorophenyl)methyl]-2-[(4-methylcyclohexyl)amino]-] belongs 0.055 µM.

As to `O=C(NCc1ccc(Cl)c(Cl)c1)c1cnc(NC2CCCC2)nc1C1(c2ccc(F)cc2)CCCC1` [Example 258, 5-pyrimidinecarboxamide, 2-(cyclopentylamino)-N-[(3,4-dichlorophenyl)methyl]-4-[1-(4-fluorophenyl)cyclopentyl]-], under setting [2], the response was half-maximal at 0.091 µM (EC50).
